Assay results reported in US7585941B2 (priority 2004, dated 2009).
Read-outs that look alike come from different tables or passages of the source.

Legend:
[1] = target: T1, rMOR-1 (Rattus norvegicus, UniProt P33535); assay: biochemical; format: biochemical
Description: (§1) Basal [^35S]GTPγS binding was assessed in membranes from cells stably transfected with the individual variants. The ability multiple concentrations of the indicated opioid to stimulate [^35S]GTPγS binding was determined. […] Results are the means ±S.E.M. of at least three independent determinations.

[2] = target: T2, rMOR-1C1 (Rattus norvegicus, UniProt P33535); assay: biochemical; format: biochemical
Description: as §1

[3] = target: rMOR-1D (Rattus norvegicus, UniProt P33535, I238V); assay: biochemical; format: biochemical
Description: as §1

[4] = target: rMOR-1 (no Exon 4) (Rattus norvegicus, UniProt P33535); assay: biochemical; format: biochemical
Description: as §1

[5] = tested on: hMOR-1 variants; settings: for range of the maximal inhibitions among the variants: relative efficacy, Table 5
[6] = target: T3, rMOR-1A (Rattus norvegicus, UniProt P33535); assay: biochemical; format: biochemical
Description: as §1

[7] = tested on: human MOR-1 variants
[8] = target: T4, rMOR-1D (Rattus norvegicus, UniProt P33535); assay: biochemical; format: biochemical
Description: as §1

[9] = target: T3, rMOR-1A; assay: biochemical; format: binding
[10] = target: hMOR-1Y (Homo sapiens, UniProt P35372); assay: biochemical; format: binding
[11] = target: hMOR-1B2 (Homo sapiens, UniProt P35372); assay: biochemical; format: binding
[12] = target: T1, rMOR-1; format: binding
[13] = target: hMOR-1 (Homo sapiens, UniProt P35372); assay: biochemical; format: binding
[14] = target: T5, rMOR-1 (no E4) (Rattus norvegicus, UniProt P33535); assay: biochemical; format: binding
T5 construct: rMOR-1 no E 4; expressed in transfected cells

[15] = target: hMOR-1B3 (Homo sapiens, UniProt P35372); assay: biochemical; format: binding
[16] = target: hMOR-1B4 (Homo sapiens, UniProt P35372); assay: biochemical; format: binding
[17] = target: hMOR-1A (Homo sapiens, UniProt P35372); assay: biochemical; format: binding
[18] = target: T2, rMOR-1C1; assay: biochemical; format: binding
[19] = target: T4, rMOR-1D; assay: biochemical; format: binding
[20] = target: hMOR-1B1 (Homo sapiens, UniProt P35372); format: binding
[21] = as an analgesic and as a respiratory depressant; background statement; cited from earlier work
[22] = target: hMOR-1B4 (Homo sapiens, UniProt P35372, I109V); assay: biochemical; format: binding
[23] = target: hMOR-1B5 (Homo sapiens, UniProt P35372); settings: cho cells

With `C[C@@H](NC(=O)[C@@H](N)Cc1ccc(O)cc1)C(=O)NCC(=O)N(C)[C@@H](Cc1ccccc1)C(=O)NCCO` [DAMGO, [D-Ala^2,MePhe^4,Gly(ol)^5]enkephalin] as the compound, how does the “Max Stim (%)” value ([1]; percent increase over basal binding, rMOR-1) read?
Its value is 233 ± 44%.

And the “Max Stim (%)” value ([2]; percent increase over basal binding, rMOR-1C1)?
Its value is 233 ± 45%.

And the “Max Stim (%)” value ([3]; percent increase over basal binding, rMOR-1D)?
The value was 113 ± 22%.

And the “Max Stim (%)” value ([4]; percent increase over basal binding, rMOR-1 (no Exon 4))?
The value was 196 ± 37%.

And the “range of the maximal inhibitions among the variants” value [5]?
Its value is 63-100%.

And the “Max Stim (%)” value ([6]; percent increase over basal binding, rMOR-1A)?
Its value is 176 ± 24%.

With `CC1(C)SSC(C)(C)[C@@H](NC(=O)[C@@H](N)Cc2ccc(O)cc2)C(=O)NCC(=O)N[C@@H](Cc2ccccc2)C(=O)N[C@H]1C(=O)O` [DPDPE, [D-Pen^2, D-Pen-^5]enkephalin] as the compound, how does the “competition of [3H]DAMGO binding (in words)” value [7] read?
Its value is “inactive”.

For `CC(C)C[C@H](NC(=O)[C@H](Cc1ccccc1)NC(=O)CNC(=O)[C@@H](CO)NC(=O)[C@@H](N)Cc1ccc(O)cc1)C(=O)N[C@H](C(=O)O)[C@@H](C)O` [DSLET, [D-Ser^2, Leu^5]enkephalin-Thr^6], which EC50 [1] is on record?
Its EC50 is 76 ± 17 nM.

What about the “Max Stim (%)” value [1] of the same compound?
Its value is 251 ± 5%.

What about the EC50 [2] of the same compound?
Its EC50 is 253 ± 75 nM.

What about the “Max Stim (%)” value [2] of the same compound?
The value was 312 ± 19%.

And the EC50 [8]?
The EC50 was 540 ± 129 nM.

What about the “Max Stim (%)” value [3] of the same compound?
The value was 187 ± 19%.

What about the EC50 [4] of the same compound?
The EC50 was 690 ± 179 nM.

What about the “Max Stim (%)” value [4] of the same compound?
The value was 226 ± 15%.

What about the Ki [9] of the same compound?
The Ki was 44.5 ± 5.1 nM.

And the EC50 [6]?
The EC50 was 127 ± 45 nM.

What about the “Max Stim (%)” value [6] of the same compound?
Its value is 206 ± 23%.

And the Ki [10]?
Its Ki is 15.4 ± 3.5 nM.

And the Ki [11]?
The Ki was 34.4 ± 6.4 nM.

What about the Ki [12] of the same compound?
Its Ki is 30.9 ± 1.9 nM.

What about the Ki [13] of the same compound?
The Ki was 19.1 ± 5.8 nM.

What about the Ki [14] of the same compound?
Its Ki is 24.2 ± 1.9 nM.

And the Ki [15]?
The Ki was 16.4 ± 2.8 nM.

What about the Ki [16] of the same compound?
Its Ki is 22.3 ± 2 nM.

And the Ki [17]?
Its Ki is 19.7 ± 7.7 nM.

And the Ki [18]?
The Ki was 45 ± 8.7 nM.

What about the Ki [19] of the same compound?
The Ki was 27.3 ± 7.3 nM.

What about the Ki [20] of the same compound?
The Ki was 13.9 ± 4.9 nM.

For `COc1ccc2c3c1O[C@H]1[C@@H](O)C=C[C@H]4[C@@H](C2)N(C)CC[C@@]341` [codeine], which “effectiveness orally relative to parenterally” value [21] is on record?
The value was “approximately 60%”.

Which “variation of IC50 values among the variants” value ([5]; cAMP inhibition, among human variants) does the source give for `CC[C@H](C)[C@H](NC(=O)[C@H](C)NC(=O)[C@H](CC(N)=O)NC(=O)[C@H](CCCCN)NC(=O)[C@H](Cc1ccccc1)NC(=O)[C@H](CC(C)C)NC(=O)[C@@H](NC(=O)[C@@H](NC(=O)[C@H](CC(C)C)NC(=O)[C@@H]1CCCN1C(=O)[C@@H](NC(=O)[C@H](CCC(N)=O)NC(=O)[C@H](CO)NC(=O)[C@H](CCCCN)NC(=O)[C@H](CCC(=O)O)NC(=O)[C@H](CO)NC(=O)[C@@H](NC(=O)[C@H](CCSC)NC(=O)[C@H](Cc1ccccc1)NC(=O)CNC(=O)CNC(=O)[C@@H](N)Cc1ccc(O)cc1)[C@@H](C)O)[C@@H](C)O)C(C)C)[C@@H](C)O)C(=O)N[C@H](C(=O)N[C@@H](CCCCN)C(=O)N[C@@H](CC(N)=O)C(=O)N[C@@H](C)C(=O)N[C@@H](Cc1ccc(O)cc1)C(=O)N[C@@H](CCCCN)C(=O)N[C@@H](CCCCN)C(=O)NCC(=O)N[C@@H](CCC(=O)O)C(=O)O)[C@@H](C)CC` [β-Endorphin] here?
Its value is 3- to 16 fold.

And the “range of the maximal inhibitions among the variants” value [5]?
Its value is 72-100%.

And the “affinity for hMOR-1B2 compared to other variants (in words)” value [11]?
The value was “lower affinities”.

And the “affinity for hMOR-1B4 compared to other variants (in words)” value [22]?
Its value is “lower affinities”.

What about the “IC50 value variation between hMOR-1 and hMOR-1B5” value [23] of the same compound?
The value was “over 16 fold”.

Which results are given for Endomorphin 1?
EC50/Ki [1]: 3.4; Max Stim (%) [1]: 320 ± 23%; EC50/Ki [2]: 13.8; Max Stim (%) [2]: 377 ± 40%; EC50/Ki [3]: 25.6; Max Stim (%) [3]: 145 ± 29%; EC50/Ki [4]: 25.9; Max Stim (%) [4]: 189 ± 16%; EC50/Ki [6]: 2.3; Max Stim (%) [6]: 205 ± 34%; affinity for hMOR-1B2 compared to other variants (in words) [11]: relative lower affinities

With Endomorphin 2 as the compound, how does the “fold less potent in competing binding to hMOR-1” value [13] read?
The value was 5- to 7 fold.
